From PubChem BioAssay (NCI)
Values joined by “and” are separate entries in the source; they are usually repeats but may differ in a detail not shown here. Identical values can stand only once.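 96-well plates; 48 h exposure; 5 concentrations. Endpoints by linear interpolation between flanking doses. Not reached: highest tested concentration assigned. GI50 is the concentration that inhibits growth by half. TGI marks complete inhibition of growth.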

What was measured:
Assay in all cases: NCI-60 cell line screen, 48 h
CAKI-1 renal = system: CAKI-1 renal
CCRF-CEM leukemia = system: CCRF-CEM leukemia
COLO 205 colon = system: COLO 205 colon
EKVX NSCLC = system: EKVX NSCLC
K-562 leukemia = system: K-562 leukemia
LOX IMVI melanoma = system: LOX IMVI melanoma
MOLT-4 leukemia = system: MOLT-4 leukemia
SK-MEL-5 melanoma = system: SK-MEL-5 melanoma
SK-OV-3 ovarian = system: SK-OV-3 ovarian
HCT-15 colon = system: HCT-15 colon

SMILES | TGI (CAKI-1 renal) [µM] | TGI (CCRF-CEM leukemia) [µM] | TGI (COLO 205 colon) [µM] | TGI (EKVX NSCLC) [µM] | TGI (K-562 leukemia) [µM] | TGI (LOX IMVI melanoma) [µM] | TGI (MOLT-4 leukemia) [µM] | TGI (SK-MEL-5 melanoma) [µM] | TGI (SK-OV-3 ovarian) [µM] | GI50 (CAKI-1 renal) [µM] | GI50 (COLO 205 colon) [µM] | GI50 (EKVX NSCLC) [µM] | GI50 (HCT-15 colon) [µM] | TGI (HCT-15 colon) [µM] | GI50 (K-562 leukemia) [µM] | GI50 (LOX IMVI melanoma) [µM] | GI50 (MOLT-4 leukemia) [µM] | GI50 (SK-MEL-5 melanoma) [µM] | GI50 (SK-OV-3 ovarian) [µM] | GI50 (CCRF-CEM leukemia)
N#Cc1ccccc1C(Cl)(Cl)c1cnccn1 | > 100 | 50.3 | > 100 | > 100 | > 100 | 61 | 69.7 | 87.3 | > 100 | – | – | – | – | – | – | – | – | – | – | –
C[C@@H]1C[C@H](C)CN(S(=O)(=O)c2ccc3c(NO)c4ccc(S(=O)(=O)N5C[C@H](C)C[C@H](C)C5)cc4c(N=O)c3c2)C1 | > 1 | – | 0.342 | 0.269 | 0.12 | 0.242 | 0.194 | 0.687 | 0.248 | 0.335 | 0.172 | 0.128 | 0.0717 | 0.211 | 0.0356 | 0.105 | 0.0478 | 0.25 | 0.122 | –
C=CCNc1nc2c(s1)C(=O)c1ccccc1C2=O | 26.8 | – | 41.2 | 29 | 35.8 | 19.6 | 10.6 | 3.1 | 31.7 | – | – | – | – | 30.7 | – | – | – | – | – | –
COc1cc2c(c(OC)c1OC)-c1ncc3c(OC)c(OC)c(OC)cc3c1C2 | 83.5 | – | 38.2 | > 100 | 50.3 | 32.3 | – | 30.5 | 74.9 | 23.9 | 19.9 | 32.7 | 28.6 | > 100 | 19.2 | 16.2 | – | 16 | 29.5 | –
CC[n+]1oc(C(=O)c2ccc(Cl)cc2)c(-c2ccccc2)c1-c1ccccc1.[Cl][Fe]([Cl])([Cl])[Cl] | – | 39.4 | > 100 | > 100 | > 100 | > 100 | > 100 | 45.8 | > 100 | – | 50.7 | 30.4 | 72.6 | > 100 | > 100 | 1.82 | 47.2 | 19.5 | 46.7 | 14.8 µM
O=C1CC2C(=O)c3ccccc3CC2c2ccccc21 (stereo not given) | – | – | – | > 100 | > 100 | > 100 | 69.3 | – | > 100 | – | – | – | – | > 100 | – | – | – | – | – | –
CCc1ccc(NC(=O)NC(=O)c2ccccc2[N+](=O)[O-])cc1Oc1ncc(Cl)cn1 | – | > 100 | 0.106 | > 100 | > 100 | 14.5 | > 100 | 0.0327 | > 100 | – | – | – | – | > 100 | – | – | – | – | – | –
Cc1ccc(NC(=O)CCc2nc(N)nc(N)c2-c2ccccc2)cc1C | > 100 | > 100 | > 100 | > 100 | > 100 | – | > 100 | > 100 | > 100 | – | – | – | – | > 100 | – | – | – | – | – | –
CCOC(=O)C(Cc1c[nH]c2c(N(CCO)CCO)cccc12)(NC(C)=O)C(=O)OCC | – | 430 | > 1000 | > 1000 | 516 | 283 | – | > 1000 | > 1000 | – | 330 | > 1000 | 182 | > 1000 | 194 | 141 | – | 323 | > 1000 | 59.4 µM and 190 µM
C#Cc1cccc(N2C(=O)c3c(c(-c4ccccc4)c(-c4ccc(Cc5ccc(-c6c(-c7ccccc7)c7c(c(-c8ccccc8)c6-c6ccccc6)C(=O)N(c6cccc(C#C)c6)C7=O)cc5)cc4)c(-c4ccccc4)c3-c3ccccc3)C2=O)c1 | – | > 100 | 66.5 | > 100 | > 100 | – | > 100 | 62 | – | – | – | – | – | > 100 | – | – | – | – | – | –
COc1ccc(/C=C/C(=O)/C=C/c2cc3ccccc3[nH]c2=O)cc1 | 17.8 | 9.68 | 9.37 | – | > 100 | – | 9.24 | 25.1 | 26.7 | 4.3 | 3.31 | – | 2.41 | 7.69 | 3.34 | – | 3.2 | 11 | 9.22 | 2.98 µM
COc1cc(C2SCCCCCCCCCCSC(c3ccc(O)c(OC)c3)SCCCCCCCCCCS2)ccc1O (stereo not given) | > 100 | – | > 100 | > 100 | > 100 | > 100 | > 100 | > 100 | > 100 | – | – | – | – | > 100 | – | – | – | – | – | –
COc1ccc(NC(=O)CC2SC(=Nc3ccccc3C)NC2=O)c([N+](=O)[O-])c1 (stereo not given) | – | – | > 100 | – | > 100 | > 100 | > 100 | – | > 100 | – | – | – | – | > 100 | – | – | – | – | – | –
S=c1snc2n1CCN2 | > 100 | > 100 | > 100 | > 100 | > 100 | > 100 | > 100 | > 100 | – | > 100 | 25.2 | > 100 | > 100 | > 100 | > 100 | 81.7 | 32.3 | 58.2 | – | 33.4 µM
CCOC(=O)Nc1nc2ccc(OC)cc2s1 | > 100 | > 100 | > 100 | – | > 100 | > 100 | > 100 | > 100 | > 100 | > 100 | > 100 | – | > 100 | > 100 | > 100 | > 100 | > 100 | > 100 | > 100 | > 100 µM
COc1cc2nc(SCc3cc(OC)c(OC)c(OC)c3)n(Cc3ccccc3)c(=O)c2cc1OC | > 100 | > 100 | 6.96 | – | > 100 | > 100 | > 100 | 2.63 | 18.6 | 3.86 | 1.74 | – | 1.08 | > 100 | 0.875 | 4.35 | 3.81 | 0.454 | 3.18 | 3 µM
O=C(/C=C/c1ccccc1)C(Br)C(Br)c1ccccc1 (stereo not given) | 2.6 | 1.2 | 3.14 | – | 1.25 | 2.91 | 3 | – | 13.3 | 1.24 | 1.54 | – | – | – | 0.303 | 1.52 | 0.602 | – | 3.66 | 0.308 µM
CC(Oc1ccc2c(-c3ccccc3)cc(=O)oc2c1)C(=O)O (stereo not given) | > 100 | > 100 | > 100 | > 100 | > 100 | > 100 | > 100 | > 100 | > 100 | – | – | – | – | – | – | – | – | – | – | –
